Results published in patent US20230081426A1, “COMPOUNDS AND METHODS FOR KRAS MODULATION AND INDICATIONS THEREFOR” (Plexxikon Inc., priority 2020, published 2023).

How the values were obtained:
[1] = molecular target: T1, G12D-mutant human KRAS (amino acid residues 1-188) (Homo sapiens, UniProt P01116, G12D); assay: KRAS Binding Disruption Assay (AlphaScreen; biotinylated KRpep-2d analogue or RAF1-RBD), G12D; details: KRAS G12D; geometric mean; read-out: KRAS GMean IC50 (uM) MUTATION: G12D
T1 construct: G12D or G12C-mutant human KRAS (amino acid residues 1-188) with FLAG tag; made in house; host or cells: E. coli
T1 sequence (P01116 1-188 isoform P01116-2 G12D): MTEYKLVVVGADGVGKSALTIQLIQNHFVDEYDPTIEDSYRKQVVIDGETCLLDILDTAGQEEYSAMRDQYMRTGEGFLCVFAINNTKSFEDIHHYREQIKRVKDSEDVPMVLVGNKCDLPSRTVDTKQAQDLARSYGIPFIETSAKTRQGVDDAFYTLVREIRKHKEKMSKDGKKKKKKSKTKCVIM
Method in brief: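 AlphaScreen readout: signal falls as compound displaces biotinylated KRpep-2d analogue or RAF1-RBD from mutant KRAS. Both partners at 5-20 nM, 1 h binding at 25° C, then 10 μg/mL Anti-Flag acceptor and streptavidin donor beads for 1 h. IC50 by nonlinear regression of % inhibition.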

[2] = molecular target: T2, G12C-mutant human KRAS (amino acid residues 1-188) (Homo sapiens, UniProt P01116, G12C); assay: KRAS Binding Disruption Assay (AlphaScreen; biotinylated KRpep-2d analogue or RAF1-RBD), G12C; details: geometric mean, read-out: KRAS GMean IC50 (uM) MUTATION: G12C
T2 construct: G12D or G12C-mutant human KRAS (amino acid residues 1-188) with FLAG tag; made in house; host or cells: E. coli
T2 sequence (P01116 1-188 isoform P01116-2 G12C): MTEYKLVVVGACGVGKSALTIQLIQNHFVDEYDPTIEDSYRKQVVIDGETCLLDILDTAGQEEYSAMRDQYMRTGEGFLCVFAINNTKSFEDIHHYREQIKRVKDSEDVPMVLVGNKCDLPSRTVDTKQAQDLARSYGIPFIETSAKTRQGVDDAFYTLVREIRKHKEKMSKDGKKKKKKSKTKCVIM
Method: Compound binding disrupts the interaction of KRpep-2d or RAF1-RBD with KRAS, leading to a decrease in Alpha signal.
All assay components were prepared in 20 mM HEPES (pH 7.5), 100 mM NaCl, 5 mM MgCl2, 0.01% Tween-20, and 0.01% BSA. Biotinylated analogues of KRpep-2d were custom synthesized. The binding disruption assays were performed using 5-20 nM of mutant KRAS and 5-20 nM of either biotinylated KRpep-2d analogue or RAF1-RBD. 19 μL of KRAS protein and 4 μL of biotinylated KRpep-2d or RAF1-RBD were added to the wells of a 384-well plate containing 1 μL of various concentrations of test compound or DMSO vehicle. 16 wells containing KRAS, biotinylated KRpep-2d or RAF1-RBD, and 5% DMSO served as high controls. 16 wells containing KRAS only and 5% DMSO served as low controls. Binding reactions were incubated for 1 hour at 25° C., then Anti-Flag Acceptor and Streptavidin Donor Alpha beads were added at a final concentration of 10 μg/mL for an additional hour at room temperature. Alpha signal was read out on a Perkin Elmer Envision HTS instrument. The percentage inhibition at individual compound concentrations relative to high and low controls was calculated. The data were analyzed by using nonlinear regression to generate IC50 values.

IC50 [1] [µM] | IC50 [2] [µM] | SMILES
0.0001 to 10 | 10 to 100 | CS(=O)(=O)NCCc1nc(N2C[C@H]3CC[C@@H](C2)N3)c2ccc(-c3cc(O)cc4ccccc34)c(F)c2n1 [P-0771, N-(2-(4-((1R,5S)-3,8-diazabicyclo[3.2.1]octan-3-yl)-8-fluoro-7-(3-hydroxynaphthalen-1-yl)quinazolin-2-yl)ethyl)methanesulfonamide]
0.0001 to 10 | 10 to 100 | Oc1cc(-c2ccc3c(N4C[C@H]5CC[C@@H](C4)N5)nc(CCNc4ncccn4)nc3c2F)c2ccccc2c1 [P-0769, 4-(4-((1R,5S)-3,8-diazabicyclo[3.2.1]octan-3-yl)-8-fluoro-2-(2-(pyrimidin-2-ylamino)ethyl)quinazolin-7-yl)naphthalen-2-ol]
0.0001 to 10 | 0.0001 to 10 | OCC1(COc2nc(N3C[C@H]4CC[C@@H](C3)N4)c3ccc(-c4cc(O)cc5ccccc45)c(F)c3n2)CCC1 [P-0651, 4-(4-((1R,5S)-3,8-diazabicyclo[3.2.1]octan-3-yl)-8-fluoro-2-((1-(hydroxymethyl)cyclobutyl)methoxy)quinazolin-7-yl)naphthalen-2-ol]
0.0001 to 10 | 10 to 100 | Oc1cc(-c2ccc3c(N4C[C@H]5CC[C@@H](C4)N5)nc(OCCN4CCC4)nc3c2F)c2ccccc2c1 [P-0713, 4-(2-(2-(azetidin-1-yl)ethoxy)-4-((1R,5S)-3,8-diazabicyclo[3.2.1]octan-3-yl)-8-fluoroquinazolin-7-yl)naphthalen-2-ol]
0.0001 to 10 | 10 to 100 | COc1cccc2[nH]cc(-c3c(F)cc4c(N5C[C@H]6CC[C@@H](C5)N6)nc(OC[C@@H]5CCCN5C)nc4c3F)c12 [P-0797, 4-((1R,5S)-3,8-diazabicyclo[3.2.1]octan-3-yl)-6,8-difluoro-7-(4-methoxy-1H-indol-3-yl)-2-(((S)-1-methylpyrrolidin-2-yl)methoxy)quinazoline]
0.0001 to 10 | 10 to 100 | Oc1cc(-c2ccc3c(N4C[C@H]5CC[C@@H](C4)N5)nc(N4CC(N5CCOCC5)C4)nc3c2F)c2ccccc2c1 [P-0703, 4-(4-((1R,5S)-3,8-diazabicyclo[3.2.1]octan-3-yl)-8-fluoro-2-(3-morpholinoazetidin-1-yl)quinazolin-7-yl)naphthalen-2-ol]
0.0001 to 10 | 10 to 100 | CN(C)C1(CNc2nc(N3C[C@H]4CC[C@@H](C3)N4)c3ccc(-c4cc(O)cc5ccccc45)c(F)c3n2)CCOCC1 [P-0639, 4-(4-((1R,5S)-3,8-diazabicyclo[3.2.1]octan-3-yl)-2-(((4-(dimethylamino)tetrahydro-2H-pyran-4-yl)methyl)amino)-8-fluoroquinazolin-7-yl)naphthalen-2-ol]
0.0001 to 10 | 10 to 100 | Fc1cc2[nH]cc(-c3c(F)cc4c(N5C[C@H]6CC[C@@H](C5)N6)nc(OCC56CCCN5CCC6)nc4c3F)c2cc1F [P-0789, 4-((1R,5S)-3,8-diazabicyclo[3.2.1]octan-3-yl)-7-(5,6-difluoro-1H-indol-3-yl)-6,8-difluoro-2-((tetrahydro-1H-pyrrolizin-7a(5H)-yl)methoxy)quinazoline]
0.0001 to 10 | 10 to 100 | CCN(CC)C1CN(c2nc(N3C[C@H]4CC[C@@H](C3)N4)c3ccc(-c4cc(O)cc5ccccc45)c(F)c3n2)C1 [P-0637, 4-(4-((1R,5S)-3,8-diazabicyclo[3.2.1]octan-3-yl)-2-(3-(diethylamino)azetidin-1-yl)-8-fluoroquinazolin-7-yl)naphthalen-2-ol]
0.0001 to 10 | 10 to 100 | COC(C)(C)COc1nc(N2C[C@H]3CC[C@@H](C2)N3)c2ccc(-c3cc(O)cc4ccccc34)c(F)c2n1 [P-0720, 4-(4-((1R,5S)-3,8-diazabicyclo[3.2.1]octan-3-yl)-8-fluoro-2-(2-methoxy-2-methylpropoxy)quinazolin-7-yl)naphthalen-2-ol]
0.0001 to 10 | 100 to 1000 | CN1CCC[C@H]1COc1nc(N2C[C@H]3CC[C@@H](C2)N3)c2cc(F)c(-c3c[nH]c4cc(Cl)ccc34)c(F)c2n1 [P-0796, 4-((1R,5S)-3,8-diazabicyclo[3.2.1]octan-3-yl)-7-(6-chloro-1H-indol-3-yl)-6,8-difluoro-2-(((S)-1-methylpyrrolidin-2-yl)methoxy)quinazoline]
0.0001 to 10 | 0.0001 to 10 | N#Cc1cccc2[nH]cc(-c3ccc4c(N5C[C@H]6CC[C@@H](C5)N6)nc(OCC56CCCN5CCC6)nc4c3F)c12 [P-0666, 3-(4-((1R,5S)-3,8-diazabicyclo[3.2.1]octan-3-yl)-8-fluoro-2-((tetrahydro-1H-pyrrolizin-7a(5H)-yl)methoxy)quinazolin-7-yl)-1H-indole-4-carbonitrile]
0.0001 to 10 | 10 to 100 | O=C1CCC(COc2nc(N3C[C@H]4CC[C@@H](C3)N4)c3ccc(-c4cc(O)cc5ccccc45)c(F)c3n2)N1 (stereo partly drawn) [P-0802, 5-(((4-((1R,5S)-3,8-diazabicyclo[3.2.1]octan-3-yl)-8-fluoro-7-(3-hydroxynaphthalen-1-yl)quinazolin-2-yl)oxy)methyl)pyrrolidin-2-one]
0.0001 to 10 | 10 to 100 | CN1CCC[C@H]1COc1nc(N2C[C@H]3CC[C@@H](C2)N3)c2ccc(-c3cc(N)nc4ccccc34)c(F)c2n1 [P-0760, 4-(4-((1R,5S)-3,8-diazabicyclo[3.2.1]octan-3-yl)-8-fluoro-2-(((S)-1-methylpyrrolidin-2-yl)methoxy)quinazolin-7-yl)quinolin-2-amine]
0.0001 to 10 | 10 to 100 | O=C1CCC(=O)N1CCOc1nc(N2C[C@H]3CC[C@@H](C2)N3)c2ccc(-c3cc(O)cc4ccccc34)c(F)c2n1 [P-0694, 1-(2-((4-((1R,5S)-3,8-diazabicyclo[3.2.1]octan-3-yl)-8-fluoro-7-(3-hydroxynaphthalen-1-yl)quinazolin-2-yl)oxy)ethyl)pyrrolidine-2,5-dione]
0.0001 to 10 | 10 to 100 | Clc1cccc2[nH]cc(-c3ccc4c(N5C[C@H]6CC[C@@H](C5)N6)nc(OCC56CCCN5CCC6)nc4c3)c12 [P-0700, 4-((1R,5S)-3,8-diazabicyclo[3.2.1]octan-3-yl)-7-(4-chloro-1H-indol-3-yl)-2-((tetrahydro-1H-pyrrolizin-7a(5H)-yl)methoxy)quinazoline]
100 to 1000 | 100 to 1000 | CC1(COc2nc(N3C[C@H]4CC[C@@H](C3)N4)c3ccc(-c4cc(O)cc5ccccc45)c(F)c3n2)COC1 [P-0785, 4-(4-((1R,5S)-3,8-diazabicyclo[3.2.1]octan-3-yl)-8-fluoro-2-((3-methyloxetan-3-yl)methoxy)quinazolin-7-yl)naphthalen-2-ol]
0.0001 to 10 | 10 to 100 | O=C(NCCCN1CCC[C@H]1COc1nc(N2C[C@H]3CC[C@@H](C2)N3)c2ccc(-c3cc(O)cc4ccccc34)c(F)c2n1)OCc1ccccc1 [P-0676, benzyl (3-((S)-2-(((4-((1R,5S)-3,8-diazabicyclo[3.2.1]octan-3-yl)-8-fluoro-7-(3-hydroxynaphthalen-1-yl)quinazolin-2-yl)oxy)methyl)pyrrolidin-1-yl)propyl)carbamate]
0.0001 to 10 | 100 to 1000 | CN1CCC[C@H]1COc1nc(N2C[C@H]3CC[C@@H](C2)N3)c2cc(F)c(-c3c[nH]c4ccc(C(F)(F)F)cc34)c(F)c2n1 [P-0757, 4-((1R,5S)-3,8-diazabicyclo[3.2.1]octan-3-yl)-6,8-difluoro-2-(((S)-1-methylpyrrolidin-2-yl)methoxy)-7-(5-(trifluoromethyl)-1H-indol-3-yl)quinazoline]
0.0001 to 10 | 0.0001 to 10 | Cn1cncc1COc1nc(N2C[C@H]3CC[C@@H](C2)N3)c2ccc(-c3cc(O)cc4ccccc34)c(F)c2n1 [P-0786, 4-(4-((1R,5S)-3,8-diazabicyclo[3.2.1]octan-3-yl)-8-fluoro-2-((1-methyl-1H-imidazol-5-yl)methoxy)quinazolin-7-yl)naphthalen-2-ol]
0.0001 to 10 | 10 to 100 | CN1CCC[C@H]1COc1nc(N2C[C@H]3CC[C@@H](C2)N3)c2cc(F)c(-c3c[nH]c4cc(F)ccc34)c(F)c2n1 [P-0759, 4-((1R,5S)-3,8-diazabicyclo[3.2.1]octan-3-yl)-6,8-difluoro-7-(6-fluoro-1H-indol-3-yl)-2-(((S)-1-methylpyrrolidin-2-yl)methoxy)quinazoline]
0.0001 to 10 | 100 to 1000 | COC1CN(c2nc(N3C[C@H]4CC[C@@H](C3)N4)c3ccc(-c4cc(O)cc5ccccc45)c(F)c3n2)C1 [P-0658, 4-(4-((1R,5S)-3,8-diazabicyclo[3.2.1]octan-3-yl)-8-fluoro-2-(3-methoxyazetidin-1-yl)quinazolin-7-yl)naphthalen-2-ol]
0.0001 to 10 | 10 to 100 | Oc1cc(-c2ccc3c(N4C[C@H]5CC[C@@H](C4)N5)nc(OCC4CC4(F)F)nc3c2F)c2ccccc2c1 (stereo partly drawn) [P-0741, 4-(4-((1R,5S)-3,8-diazabicyclo[3.2.1]octan-3-yl)-2-((2,2-difluorocyclopropyl)methoxy)-8-fluoroquinazolin-7-yl)naphthalen-2-ol]
